Experimental data as given in the supplement of paper PMC10307832.

Columns and labels:
Experiment in all cases: relative viability (nuclei count vs DMSO), 5 days (fraction); higher = more cells survive
NCI-H1734 = test system: NCI-H1734
Method in brief: (§1)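 Relative viability divides the nuclei count in treated wells by that in vehicle wells. Lung cancer cell lines were seeded in 1536-well plates, dosed by pin tool the next day, and fixed and stained after 5 days in one step with final 0.05% Triton X-100, 1% formaldehyde and 1 ug/ml Hoechst. Dosing was a single drug or a fixed anchor-drug dose plus five library-drug doses (not always all listed) in √10 steps, and values are medians of duplicate plates imaged at 4×.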

EKVX = test system: EKVX
Method in brief: as §1

ABC-1 = test system: ABC-1
Method in brief: as §1

NCI-H1793 = test system: NCI-H1793
Method in brief: as §1

NCI-H2347 = test system: NCI-H2347
Method in brief: as §1

NCI-H1437 = test system: NCI-H1437
Method in brief: as §1

HCC-827 = test system: HCC-827
Method in brief: as §1

LXF-289 = test system: LXF-289
Method in brief: as §1

NCI-H522 = test system: NCI-H522
Method in brief: as §1

HARA = test system: HARA
Method in brief: as §1

NCI-H358 = test system: NCI-H358
Method in brief: as §1

HCC-78 = test system: HCC-78
Method in brief: as §1

CAL-12T = test system: CAL-12T
Method in brief: as §1

201T = test system: 201T
Method in brief: as §1

LU99A = test system: LU99A
Method in brief: as §1

NCI-H1648 = test system: NCI-H1648
Method in brief: as §1

NCI-H2170 = test system: NCI-H2170
Method in brief: as §1

NCI-H1915 = test system: NCI-H1915
Method in brief: as §1

LOU-NH91 = test system: LOU-NH91
Method in brief: as §1

NCI-H2342 = test system: NCI-H2342
Method in brief: as §1

HCC-366 = test system: HCC-366
Method in brief: as §1

`Nc1cccc2c1CN(C1CCC(=O)NC1=O)C2=O` (stereo unspecified) [Lenalidomide] + NC(=O)Nc1cc(-c2cccc(F)c2)sc1C(=O)N[C@H]1CCCNC1 [AZD7762] (partner 0.2 µM) was tested, and the relative viability (NCI-H1734; first compound 0.253 µM) was 0.586, the relative viability (NCI-H1734; first compound 0.8 µM) was 0.597 and the relative viability (NCI-H1734; first compound 2.53 µM) was 0.618. The relative viability (NCI-H1734; first compound 8 µM) was 0.494, the relative viability (EKVX; first compound 0.253 µM) was 0.735 and the relative viability (EKVX; first compound 0.8 µM) was 0.941. It also gave a relative viability (EKVX; first compound 2.53 µM) of 0.805, a relative viability (EKVX; first compound 8 µM) of 0.7 and a relative viability (ABC-1; first compound 0.253 µM) of 0.791. The relative viability (ABC-1; first compound 0.8 µM) was 0.59, the relative viability (ABC-1; first compound 2.53 µM) was 0.929 and the relative viability (ABC-1; first compound 8 µM) was 0.856. For the same compound, the relative viability (NCI-H1793; first compound 0.253 µM) was 0.476, the relative viability (NCI-H1793; first compound 2.53 µM) was 0.821 and the relative viability (NCI-H1793; first compound 8 µM) was 0.389. For the same compound, the relative viability (NCI-H2347; first compound 0.253 µM) was 0.787, the relative viability (NCI-H2347; first compound 0.8 µM) was 0.689 and the relative viability (NCI-H2347; first compound 2.53 µM) was 0.811. It also gave a relative viability (NCI-H2347; first compound 8 µM) of 0.703, a relative viability (NCI-H1437; first compound 0.253 µM) of 1.16 and a relative viability (NCI-H1437; first compound 0.8 µM) of 1.23. It also gave a relative viability (NCI-H1437; first compound 2.53 µM) of 1.17, a relative viability (NCI-H1437; first compound 8 µM) of 1.19 and a relative viability (HCC-827; first compound 0.253 µM) of 0.264. It also gave a relative viability (HCC-827; first compound 0.8 µM) of 0.325, a relative viability (HCC-827; first compound 2.53 µM) of 0.255 and a relative viability (HCC-827; first compound 8 µM) of 0.206. The relative viability (LXF-289; first compound 0.253 µM) was 1.09, the relative viability (LXF-289; first compound 0.8 µM) was 1.1 and the relative viability (LXF-289; first compound 2.53 µM) was 1.23. The relative viability (LXF-289; first compound 8 µM) was 1.26, the relative viability (NCI-H522; first compound 0.253 µM) was 0.858 and the relative viability (NCI-H522; first compound 0.8 µM) was 0.882. It also gave a relative viability (NCI-H522; first compound 2.53 µM) of 0.758, a relative viability (NCI-H522; first compound 8 µM) of 0.758 and a relative viability (HARA; first compound 0.253 µM) of 0.173. It also gave a relative viability (HARA; first compound 2.53 µM) of 0.296, a relative viability (HARA; first compound 8 µM) of 0.434 and a relative viability (NCI-H358; first compound 0.253 µM) of 0.521. For the same compound, the relative viability (NCI-H358; first compound 0.8 µM) was 0.713, the relative viability (NCI-H358; first compound 2.53 µM) was 0.494 and the relative viability (NCI-H358; first compound 8 µM) was 0.621. It also gave a relative viability (HCC-78; first compound 0.253 µM) of 0.767, a relative viability (HCC-78; first compound 0.8 µM) of 0.537 and a relative viability (HCC-78; first compound 2.53 µM) of 0.617. It also gave a relative viability (HCC-78; first compound 8 µM) of 0.417, a relative viability (CAL-12T; first compound 0.253 µM) of 0.668 and a relative viability (CAL-12T; first compound 0.8 µM) of 0.564. The relative viability (CAL-12T; first compound 2.53 µM) was 0.737, the relative viability (CAL-12T; first compound 8 µM) was 0.666 and the relative viability (201T; first compound 0.253 µM) was 0.594. For the same compound, the relative viability (201T; first compound 0.8 µM) was 0.848, the relative viability (201T; first compound 2.53 µM) was 0.617 and the relative viability (201T; first compound 8 µM) was 0.529. It also gave a relative viability (LU99A; first compound 0.253 µM) of 0.311, a relative viability (LU99A; first compound 0.8 µM) of 0.341 and a relative viability (LU99A; first compound 2.53 µM) of 0.397. For the same compound, the relative viability (LU99A; first compound 8 µM) was 0.257, the relative viability (NCI-H1648; first compound 0.253 µM) was 0.591 and the relative viability (NCI-H1648; first compound 2.53 µM) was 0.626. It also gave a relative viability (NCI-H1648; first compound 8 µM) of 0.689, a relative viability (NCI-H2170; first compound 0.253 µM) of 0.861 and a relative viability (NCI-H2170; first compound 0.8 µM) of 0.703. It also gave a relative viability (NCI-H2170; first compound 2.53 µM) of 0.976, a relative viability (NCI-H2170; first compound 8 µM) of 0.739 and a relative viability (NCI-H1915; first compound 0.253 µM) of 0.678. For the same compound, the relative viability (NCI-H1915; first compound 0.8 µM) was 0.699, the relative viability (NCI-H1915; first compound 2.53 µM) was 0.739 and the relative viability (NCI-H1915; first compound 8 µM) was 0.682. The relative viability (LOU-NH91; first compound 0.253 µM) was 0.781, the relative viability (LOU-NH91; first compound 0.8 µM) was 0.702 and the relative viability (LOU-NH91; first compound 2.53 µM) was 0.766. For the same compound, the relative viability (LOU-NH91; first compound 8 µM) was 0.647, the relative viability (NCI-H2342; first compound 0.253 µM) was 0.494 and the relative viability (NCI-H2342; first compound 0.8 µM) was 0.402. For the same compound, the relative viability (NCI-H2342; first compound 2.53 µM) was 0.529, the relative viability (NCI-H2342; first compound 8 µM) was 0.449 and the relative viability (HCC-366; first compound 0.253 µM) was 0.258. The relative viability (HCC-366; first compound 0.8 µM) was 0.268, the relative viability (HCC-366; first compound 2.53 µM) was 0.371 and the relative viability (HCC-366; first compound 8 µM) was 0.335.
